Assays:
[1] = Peptide stability to shampoo washes, fluorescence of dye-labeled peptide on hair (Example 9); assay type: binding; settings: Alexa Fluor 647 labeled peptide 1 mg/mL; virgin (FIG. 9a) and bleached (FIG. 9b) hair
Method: To separate solutions of 500 μL of DI water was added 1 mg of one of the peptides corresponding to SEQ ID NOs. 1 and 2-17. Then, a solution of 84 mg of sodium bicarbonate in 1 mL of DI water was prepared, and 12 μL of this solution was added to each peptide solution. Immediately prior to conjugation, 5 mg of Alexa Fluor 647 NHS ester (Thermo Fisher Scientific) dye molecule was dissolved in 500 μL of DMSO, and 15 μL of this solution was added to each peptide solution. After the dye was added, the solution was incubated at 4° C. in the dark for 16 hours. Removal of unbound dye molecules was carried out using a PD MiniTrap G-10 column (Cytiva) using DI water as the elutant. Fractions containing dye-labeled peptide were pooled and diluted to final peptide concentrations of 1 mg/mL.
Hair samples were then treated according to Example 8, except that during treatment with peptide, hair was treated with a single dye-labeled peptide corresponding to SEQ ID NOs. 1 and 2-17. For each set of conditions, three separate straightening protocols were performed.
Fluorescence images were collected on a EVOS M7000 Imaging System (Thermo Fisher Scientific) using a Cy5 filter set. Images were collected using a 0.1 second exposure time at a light intensity of 0.0023. Following fluorescence measurements, hair samples were then washed with shampoo an additional 9 times, towel dried, and fluorescently imaged again.
Image files were processed as 16-bit grayscale images using ImageJ software. […] The average and standard deviation of fluorescence intensity in the remaining regions (corresponding to hair strands containing fluorescently labeled peptides) was then directly calculated.

[2] = Hair straightening, treatment with heat only (Example 1); settings: 1 mg/mL peptide; after 10 shampoo wash/dry cycles
Method: Tresses of curly Brazilian hair were cut into ½ inch wide samples. The tresses were then washed with shampoo and allowed to air dry. The hair was straightened using a flat iron at 460° F. Once the hair was visibly straight, the hair was wrapped tightly in aluminum foil. A flat iron was applied to a section of the wrapped hair by holding the flat iron to the section for 10 seconds. This process was repeated until all sections of the hair were flat ironed.
Six individual solutions of each peptide corresponding to SEQ ID NO. 3 through SEQ ID NO 8 were dissolved in de-ionized (“DI”) water at a concentration of about 1 milligram per milliliter (“mg/mL”) and then applied to separate hair samples until the hair sample was saturated. The saturated hair was allowed to sit for 1 hour at 37° C. The hair was then blow dried under medium heat while gently pulling the hair into a straight shape. A flat iron was then applied to the hair at 400° F.
(§1) The straightened hair was washed with shampoo and allowed to air dry, and this washing/drying procedure was repeated a total of 10 times. […] There was little identifiable difference in efficacy among the six designed keratin binding peptides, although peptides corresponding to SEQ ID NO. 5 SEQ ID NO. 6, SEQ ID NO. 7 and SEQ ID NO. […] 3 and SEQ ID NO.4.

[3] = Hair straightening, treatment with lye and hydrogen peroxide (Example 2); settings: 1 mg/mL peptide; after 10 shampoo wash/dry cycles
Method: (§2) Tresses of curly Brazilian hair were cut into ½ inch wide samples. The tresses were then washed with shampoo and allowed to air dry. The hair then soaked in a solution of sodium hydroxide pH 12 for 30 minutes at room temperature. After this time, the hair was rinsed with DI water. The hair was then blow dried under medium heat while gently pulling the hair into a straight shape. A flat iron was then applied to the hair at 400° F.
Six individual solutions of each designed keratin binding peptide corresponding to SEQ ID NO. 3 through SEQ ID NO. 8 were dissolved in DI water at a concentration of 1 mg/ml and then applied to individual hair samples until the hair sample was saturated, and the hair sample was allowed to sit for 30 minutes at room temperature. The hair sample was then blow dried under medium heat while gently pulling the hair into a straight shape. A flat iron was then applied to the hair at 400° F.
L'Oreal® Oreor Creme 40 volume developer was then applied to the hair samples until the hair sample was saturated, and then allowed to sit for 30 minutes at room temperature. The hair samples were then rinsed with DI water.
as §1, with “Each straightened” for “The straightened”, “hair sample” for “hair”, “six” for “six designed keratin binding”, “NO. 5,” for “NO. 5”

[4] = Hair straightening, treatment with lye and glucose oxidase (Example 3); settings: 1 mg/mL peptide, 30 minutes; NaOH pH 12, glucose oxidase/glucose fixation; after 10 shampoo wash/dry cycles; only slight waves remained
Method: as §2
(§3) A solution of the peptide corresponding to SEQ ID. NO. 8 in DI water at a concentration of 1 mg/mL was then applied to hair sample until the hair sample was saturated, and the hair was allowed to sit for 30 minutes at room temperature. The hair was then blow dried under medium heat while gently pulling the hair into a straight shape. A flat iron was then applied to the hair at 400° F.
(§4) A solution of glucose oxidase (2 mg/mL) and glucose (18 mg/mL) in 50 mM sodium phosphate buffer pH 5.8 was then applied to the hair until the hair was saturated, and the hair was allowed to sit for 30 minutes at room temperature. The hair was then rinsed with DI water.
(§5) The straightened hair was washed with shampoo and allowed to air dry, and this washing/drying procedure was repeated a total of 10 times.

[5] = Hair straightening, treatment with glutathione reductase and hydrogen peroxide (Example 4); settings: 1 mg/mL peptide, 30 minutes; glutathione reductase/glutathione/NADP relaxation, 40 volume developer fixation; after 10 shampoo wash/dry cycles; only slight waves remained
Method: Tresses of curly Brazilian hair were cut into ½ inch wide samples. The tresses were then washed with shampoo and allowed to air dry. The hair then soaked in a solution of glutathione reductase (0.01 mg/mL), glutathione (100 mg/mL), and nicotinamide adenine dinucleotide phosphate (0.083 mg/mL) in 50 mM sodium phosphate buffer pH 8 for 30 minutes at room temperature. After this time, the hair was rinsed with DI water. The hair was then blow dried under medium heat while gently pulling the hair into a straight shape. A flat iron was then applied to the hair at 400° F.
as §3, with “of a” for “of the”, “SEQ ID NO.8” for “SEQ ID. NO. 8”, “to har” for “to hair sample”, “hair” for “hair sample”
L'Oreal® Oreor Creme 40 volume developer was then applied to the hair until the hair was saturated, and the hair was allowed to sit for 30 minutes at room temperature. The hair was then rinsed with DI water.
as §5

[6] = Hair straightening, treatment with glutathione and glucose oxidase (Example 5); settings: 1 mg/mL peptide, 30 minutes; glutathione pH 9 relaxation, glucose oxidase/glucose fixation; after 10 shampoo wash/dry cycles; only slight waves remained
Method: Tresses of curly Brazilian hair were cut into ½ inch wide samples. The tresses were then washed with shampoo and allowed to air dry. The hair then soaked in a solution of glutathione (100 mg/mL) in sodium hydroxide pH 9 for 30 minutes at room temperature. After this time, the hair was rinsed with DI water. The hair was then blow dried under medium heat while gently pulling the hair into a straight shape. A flat iron was then applied to the hair at 400° F.
as §3, with “ID NO.8” for “ID. NO. 8”, “hair” for “hair sample”
as §4, §5

[7] = Hair straightening, treatment with ammonium thioglycolate and hydrogen peroxide (Example 6); settings: 1 mg/mL peptide, 30 minutes; ammonium thioglycolate 10% v/v pH 10, hydrogen peroxide 2% v/v; after 30 shampoo wash/dry cycles; treated samples with and without peptide
Method: Tresses of curly Brazilian hair were cut into ½ inch wide samples. The tresses were then washed with shampoo and allowed to air dry. The hair then soaked in a solution of ammonium thioglycolate (10% v/v) in sodium hydroxide pH 10 for 30 minutes at room temperature. After this time, the hair was rinsed with DI water. The hair was then blow dried under medium heat while gently pulling the hair into a straight shape. A flat iron was then applied to the hair at 400° F.
as §3, with “In some samples, a solution” for “A solution”, “SEQ ID NO.8” for “SEQ ID. NO. 8”, “hair” for “hair sample”, “temperature. In these samples, the” for “temperature. The”
For all hair samples, a solution of hydrogen peroxide (2% v/v) was then applied to the hair until the hair was saturated, and the hair was allowed to sit for 30 minutes at room temperature. The hair was then rinsed with DI water.
The straightened hair was washed with shampoo and allowed to air dry, and this washing/drying procedure was repeated a total of 30 times.

Substance | change in fluorescence intensity between 1 and 10 shampoos (retention of peptide in hair) [1] | straightening efficiency compared among the six peptides (vs SEQ ID NO. 3 and SEQ ID NO. 4) [2] | straightening efficiency compared among the six peptides (vs SEQ ID NO. 3 and SEQ ID NO. 4) [3] | other results
SEQ ID NO. 15: differs from SEQ ID NO. 7 in lacking Q13C; 10 cysteine substitutions, unique Q3C and/or Q8C (CGCCCHLCCCFCQYKKCELFPKC) | strong retention | – | – | –
SEQ ID NO. 11: Q13C substitution relative to SEQ ID NO. 1 plus 2 additional cysteine substitutions (QGQVQHLQCAFSCYKKCELFPK) | no statistically significant decrease | – | – | –
SEQ ID NO. 5: designed keratin binding peptide with cysteine substitutions relative to SEQ ID NO: 1 (QGQCCHLQCCFSQYKKCELFPKC) | – | slightly higher straightening efficiency | slightly higher straightening efficiency | –
SEQ ID NO. 4: Q13C substitution relative to SEQ ID NO. 1 plus 3 additional cysteine substitutions (QGQVCHLQCAFSCYKKCELFPK) | no statistically significant decrease | – | – | –
SEQ ID NO. 16: differs from SEQ ID NO. 8 in lacking the Q13C substitution (CGQVCHLQCAFSQYKKCELFPKC) | significant decrease | – | – | –
SEQ ID NO. 7: cysteine-substituted peptide with Q13C; SEQ ID NO. 15 is the same without Q13C (CGCCCHLCCCFCCYKKCELFPKC) [cysteine-substituted peptide with Q13C; 15 is the same without Q13C] | no statistically significant decrease | slightly higher straightening efficiency | slightly higher straightening efficiency | –
SEQ ID NO. 6: cysteine-substituted peptide with Q13C; SEQ ID NO. 14 is the same without Q13C (CGQCCHLQCCFCCYKKCELFPKC) [cysteine-substituted peptide with Q13C; 14 is the same without Q13C] | no statistically significant decrease | slightly higher straightening efficiency | slightly higher straightening efficiency | –
SEQ ID NO. 14: differs from SEQ ID NO. 6 in lacking the Q13C substitution (CGQCCHLQCCFCQYKKCELFPKC) | significant decrease | – | – | –
SEQ ID NO. 8: cysteine-substituted peptide with Q13C; SEQ ID NO. 16 is the same without Q13C (CGQVCHLQCAFSCYKKCELFPKC) [cysteine-substituted peptide with Q13C; 16 is the same without Q13C] | no statistically significant decrease | slightly higher straightening efficiency | slightly higher straightening efficiency | hair straightening compared to untreated samples [4]: significantly straightened; hair straightening compared to untreated samples [5]: significantly straightened; hair straightening compared to untreated samples [6]: significantly straightened; hair straightening compared to an untreated sample [7]: significantly straightened
